Results on five molecules are retold here after patent US20240041042A1, “1-(PYRIDYL)-5-AZINYLPYRAZOLE DERIVATIVES, AND THEIR USE FOR CONTROL OF UNDESIRED PLANT GROWTH” (Bayer Aktiengesellschaft, priority 2020, published 2024).

Common to all, as to assay type: in vivo
One assay deals with Lolium rigidum (LOLRI). Description: Pre-emergence herbicidal action against LOLRI. The procedure, abridged: (§1)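 Application rates ran to 320 g/ha or lower, with several dosages tested on the same weeds. The compound, as wettable powder or emulsion concentrate, is sprayed pre-emergence onto soil over sown seeds; greenhouse growth follows, and effect is rated visually after roughly 3 weeks.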

For assay [1], the system named is Pharbitis purpurea (PHBPU). Description: Pre-emergence herbicidal action against PHBPU. A digest of the protocol:
as §1

Another assay has as its system Setaria viridis (SETVI). In words: Pre-emergence herbicidal action against SETVI. The procedure, abridged: as §1
Assay [2] deals with Verconica persica (VERPE). In words: Pre-emergence herbicidal action against VERPE. The procedure, abridged:
as §1

The subject of assay [3] is Viola tricolor (VIOTR). Description: Pre-emergence herbicidal action against VIOTR. The procedure, abridged: as §1
For another assay, the system named is Avena fatua (AVEFA). In words: Post-emergence herbicidal action against AVEFA. The conditions noted are these: visual rating about 3 weeks after treatment. A digest of the protocol:
(§2)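 Rates were 320 g/ha or below, applied as aqueous WP/EC spray with 0.5% additive (600 l/ha) onto one-leaf-stage plants. About 3 weeks later in the greenhouse, damage was scored visually against untreated plants on a 0–100% scale, where 100% means plants died.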

Assay [4] deals with Matricaria inodora (MATIN). Description: Post-emergence herbicidal action against MATIN. The procedure, abridged: as §2
Assay [5] has as its system Pharbitis purpurea (PHBPU). In words: Post-emergence herbicidal action against PHBPU. The procedure, abridged: as §2
For assay [6], the system named is Verconica persica (VERPE). Description: Post-emergence herbicidal action against VERPE. A digest of the protocol: as §2
The test system of assay [7] is Viola tricolor (VIOTR). Description: Post-emergence herbicidal action against VIOTR. The procedure, abridged: as §2

On to `COC(=O)[C@@H](C)Oc1nn(-c2ccccn2)c(-c2cncc(F)c2)c1Cl` [Example I-189], for which the “Pre-emergence action against LOLRI in %” value in the assay on Lolium rigidum (LOLRI) (dosage 80 g/ha) and in the assay on Lolium rigidum (LOLRI) (dosage 320 g/ha) was 100% in each case. For the same molecule, the “Pre-emergence action against PHBPU in %” value in assay [1] (dosage 80 g/ha) and in assay [1] (dosage 320 g/ha) was 90% each time. The “Pre-emergence action against SETVI in %” value in the assay on Setaria viridis (SETVI) (dosage 80 g/ha) and with Setaria viridis (SETVI) (dosage 320 g/ha) was 100% throughout. In addition, the “Pre-emergence action against VERPE in %” value amounted to 90% in assay [2] (dosage 80 g/ha) and 100% in assay [2] (dosage 320 g/ha). In addition, the “Pre-emergence action against VIOTR in %” value with Viola tricolor (VIOTR) [3] (320 g/ha, Viola tricolor) turned out to be 100%; in the assay with Viola tricolor (VIOTR) [3] (dosage 80 g/ha), 100%. Also, the “Post-emergence action against AVEFA in %” value in the assay with Avena fatua (AVEFA) (80 g/ha) and in the assay on Avena fatua (AVEFA) (320 g/ha) was 90% throughout. Besides, the “Post-emergence action against MATIN in %” value in [4] (dosage 80 g/ha) and in assay [4] (dosage 320 g/ha) was 90% throughout. Besides, the “Post-emergence action against PHBPU in %” value in assay [5] (dosage 80 g/ha) and in assay [5] (dosage 320 g/ha) was 90% each time. The “Post-emergence action against VERPE in %” value in [6] (320 g/ha, VERPE) is on record as 90%; in [6] (dosage 80 g/ha), 90%. The “Post-emergence action against VIOTR in %” value in the assay with Viola tricolor (VIOTR) [7] (80 g/ha) and with Viola tricolor (VIOTR) [7] (320 g/ha) was 90% in each case.

In the case of `COC(=O)C(C)COC(=O)[C@@H](C)Oc1nn(-c2ccccn2)c(-c2cncc(F)c2)c1Br` (some centres unmarked) [Example I-188], the “Pre-emergence action against LOLRI in %” value in the assay on Lolium rigidum (LOLRI) (dosage 80 g/ha) and in the assay on Lolium rigidum (LOLRI) (dosage 320 g/ha) was 100% in each case. The entries for the “Pre-emergence action against PHBPU in %” value in assay [1] (dosage 80 g/ha) and in assay [1] (dosage 320 g/ha) were 80% and 90%, respectively. The “Pre-emergence action against SETVI in %” value in the assay on Setaria viridis (SETVI) (dosage 80 g/ha) and in the assay with Setaria viridis (SETVI) (dosage 320 g/ha) was 100% in each case. Moreover, the “Pre-emergence action against VERPE in %” value in [2] (dosage 80 g/ha) and in assay [2] (dosage 320 g/ha) was 100% in each case. Besides, the “Pre-emergence action against VIOTR in %” value with Viola tricolor (VIOTR) [3] (320 g/ha, Viola tricolor) turned out to be 100%; in the assay with Viola tricolor (VIOTR) [3] (dosage 80 g/ha), 100%. For the same molecule, the “Post-emergence action against AVEFA in %” value with Avena fatua (AVEFA) (80 g/ha) and in the assay on Avena fatua (AVEFA) (320 g/ha) was 80% in each case. In addition, the “Post-emergence action against MATIN in %” value in assay [4] (dosage 320 g/ha) turned out to be 80%. The “Post-emergence action against PHBPU in %” value in assay [5] (dosage 80 g/ha) and in assay [5] (dosage 320 g/ha) was 90% in each case. Also, the “Post-emergence action against VERPE in %” value in assay [6] (320 g/ha, VERPE) is recorded as 90%; in assay [6] (dosage 80 g/ha) it was 80%. Also, the “Post-emergence action against VIOTR in %” value with Viola tricolor (VIOTR) [7] (80 g/ha) and with Viola tricolor (VIOTR) [7] (320 g/ha) was 80% in each case.

For `O=C(O)COc1nn(-c2nc(F)ccc2F)c(-c2cncc(F)c2)c1C1CC1` [Example I-148], the “Pre-emergence action against LOLRI in %” value is 90% in the assay on Lolium rigidum (LOLRI) (dosage 80 g/ha) and 100% with Lolium rigidum (LOLRI) (dosage 320 g/ha). In assay [1] (dosage 320 g/ha), the “Pre-emergence action against PHBPU in %” value is reported as 90%. Besides, the “Pre-emergence action against SETVI in %” value in the assay on Setaria viridis (SETVI) (dosage 80 g/ha) came to 90%; with Setaria viridis (SETVI) (dosage 320 g/ha), 100%. In addition, the “Pre-emergence action against VERPE in %” value was found to be 90% in assay [2] (dosage 80 g/ha) and 100% in assay [2] (dosage 320 g/ha). Also, the “Pre-emergence action against VIOTR in %” value in the assay on Viola tricolor (VIOTR) [3] (320 g/ha, Viola tricolor) turned out to be 100%; in the assay on Viola tricolor (VIOTR) [3] (dosage 80 g/ha), 100%. Besides, in the assay with Avena fatua (AVEFA) (320 g/ha), the “Post-emergence action against AVEFA in %” value came out at 80%. Besides, the “Post-emergence action against MATIN in %” value in [4] (dosage 80 g/ha) and in [4] (dosage 320 g/ha) was 80% in each case. Besides, the “Post-emergence action against PHBPU in %” value in assay [5] (dosage 80 g/ha) worked out at 80%; in [5] (dosage 320 g/ha), 90%. The “Post-emergence action against VERPE in %” value in [6] (320 g/ha, VERPE) was found to be 80%; in assay [6] (dosage 80 g/ha) it was 80%. For the same molecule, the “Post-emergence action against VIOTR in %” value in the assay on Viola tricolor (VIOTR) [7] (80 g/ha) and with Viola tricolor (VIOTR) [7] (320 g/ha) was 80% in each case.

For the molecule `CCOC(=O)COc1nn(-c2nc(F)ccc2F)c(-c2cncc(F)c2)c1Br` [Example I-193], the “Pre-emergence action against LOLRI in %” value in the assay with Lolium rigidum (LOLRI) (dosage 320 g/ha) is on record as 90%. Besides, the entries for the “Pre-emergence action against PHBPU in %” value in [1] (dosage 80 g/ha) and in assay [1] (dosage 320 g/ha) were 80% and 90%, respectively. Besides, the “Pre-emergence action against SETVI in %” value with Setaria viridis (SETVI) (dosage 80 g/ha) and in the assay on Setaria viridis (SETVI) (dosage 320 g/ha) was 100% each time. Further, the “Pre-emergence action against VERPE in %” value in [2] (dosage 80 g/ha) is on record as 80%; in assay [2] (dosage 320 g/ha), 90%. The “Pre-emergence action against VIOTR in %” value in the assay on Viola tricolor (VIOTR) [3] (320 g/ha, Viola tricolor) worked out at 100%; with Viola tricolor (VIOTR) [3] (dosage 80 g/ha), 100%. For the same molecule, the figures for the “Post-emergence action against AVEFA in %” value in the assay with Avena fatua (AVEFA) (80 g/ha) and in the assay with Avena fatua (AVEFA) (320 g/ha) were 80% and 90%, respectively. Further, the “Post-emergence action against MATIN in %” value in [4] (dosage 320 g/ha) is 80%. The “Post-emergence action against PHBPU in %” value in assay [5] (dosage 80 g/ha) came out at 90%; in [5] (dosage 320 g/ha), 100%. The “Post-emergence action against VERPE in %” value in assay [6] (320 g/ha, VERPE) is given as 80%; in assay [6] (dosage 80 g/ha), 80%. Besides, the “Post-emergence action against VIOTR in %” value with Viola tricolor (VIOTR) [7] (80 g/ha) was 80%; in the assay with Viola tricolor (VIOTR) [7] (320 g/ha), 90%.

In the case of `CCOC(=O)COc1nn(-c2nc(F)ccc2F)c(-c2cncc(F)c2)c1C1CC1` [Example I-149], the “Pre-emergence action against LOLRI in %” value with Lolium rigidum (LOLRI) (dosage 80 g/ha) and with Lolium rigidum (LOLRI) (dosage 320 g/ha) was 100% throughout. Further, the “Pre-emergence action against PHBPU in %” value in assay [1] (dosage 80 g/ha) is reported as 80%; in [1] (dosage 320 g/ha), 90%. For the same molecule, the “Pre-emergence action against SETVI in %” value in the assay on Setaria viridis (SETVI) (dosage 80 g/ha) and in the assay on Setaria viridis (SETVI) (dosage 320 g/ha) was 100% each time. For the same molecule, the “Pre-emergence action against VERPE in %” value in assay [2] (dosage 320 g/ha) is 100%. For the same molecule, the “Pre-emergence action against VIOTR in %” value with Viola tricolor (VIOTR) [3] (320 g/ha, Viola tricolor) worked out at 100%; in the assay on Viola tricolor (VIOTR) [3] (dosage 80 g/ha), 100%. The “Post-emergence action against AVEFA in %” value in the assay on Avena fatua (AVEFA) (320 g/ha) is 80%. Also, the “Post-emergence action against MATIN in %” value in assay [4] (dosage 80 g/ha) stood at 80%; in assay [4] (dosage 320 g/ha), 90%. Also, the “Post-emergence action against PHBPU in %” value in assay [5] (dosage 80 g/ha) and in assay [5] (dosage 320 g/ha) was 80% in each case. The “Post-emergence action against VERPE in %” value in assay [6] (320 g/ha, VERPE) was found to be 80%. Also, the “Post-emergence action against VIOTR in %” value with Viola tricolor (VIOTR) [7] (80 g/ha) and in the assay on Viola tricolor (VIOTR) [7] (320 g/ha) was 80% throughout.
